# Measured values as given in patent US5229267A, “Assay for evaluating inhibition of PMN elastase by N-substituted azetidinones” (Merck & Co., Inc., priority 1991, dated 1993).
# System: antibody R674
# Assay: RIA: displacement of tritium labeled Compound A' or B' from polyclonal rabbit antiserum R674
# Type: binding, New Zealand white rabbits
# Conditions: up to 10 μM (the highest concentration tested)
# Description: Antibodies for the reactivation product of formula II were produced by the methods described in Basic methodology of Vituakaitis, Meth. Enzymol. 73: 46-52 (1981). Specifically, New Zealand white rabbits were immunized with Compound C (the para succinyl aminomethyl derivative of compound B'), coupled to thyroglobulin. See Scheme 3. The initial immunizations employed 1 mg of the immunogen conjugate per ml saline homogenized with 1 ml of Freund's complete adjuvant. Rabbits received a total of 0.4 ml divided over 2 intramuscular sites. Animals were boosted 30 days later receiving 0.5 mg immunogen per ml saline homogenized with 1 ml Freund's Incomplete adjuvant. […]
# Antibody titer, antibody sensitivity, antibody specificity and the presence of and concentration of reactivation product in body fluids were determined by a radioimmunoassay (RIA). […]
# Non-antibody-bound radioactive isotope was removed from the reaction mixture by it's absorption onto dextran-coated activated charcoal. […] The supernatant fluid was decanted into 9 ml of AQUASOL-2 scintillation fluid and radioactivity counted in a beta-counter. […] Percent specific binding was determined by subtracting the value for non-specific binding from the value of total antiserum binding and then dividing by the total radioactivity added.
# Sensitivity of the antisera R674 (2nd bleed) was determined in the above RIA. […]
row,SMILES,effect in RIA (displacement)
1,"NC(N)=O [Urea, urea]",without affect
2,N=C(N)NCCC[C@H](N)C(=O)O [arginine],without affect
